According to patent US20260345510A1, “MEMBRANE COATED NANOPARTICLES FOR DRUG DELIVERY” (Arizona Board Regents on Behalf of Arizona State University, priority 2022, published 2026):

Test system: PL-induced carotid atherosclerosis in the LCA
Assay: Plaque development in partially ligated LCA (long-term experiment)
Type: in vivo, mouse (ApoE−/−)
Conditions: free drug counterpart, repeated doses, without photoactivation
From the text: All animal experiments performed in this study have been approved by the Institutional Animal Care and Use Committee (IACUC) of Arizona State University, USA. Male ApoE^−/− mice (8-12 weeks old), purchased from The Jackson Laboratory, were subjected to the partial ligation (PL) procedure to induce inflammation and carotid atherosclerosis in the left carotid artery (LCA). All mice were fed a high-fat diet (Envigo #TD.88137) for 1 week prior to the PL procedure and continued to be fed the same diet until the time of euthanasia. […] For biodistribution analysis, MoNP-DiD was administered via retro-orbital injection to mice that underwent the PL 1 week prior. The arterial tissue (from carotid bifurcation to abdominal aorta) and organs were harvested 4 hours after the injection, and DiD intensity was quantified for each of the three individual zones within the arterial segments using fluorescent imaging. Subsequently, the left common CA was embedded in Tissue-Tek O.C.T. compound, cryosectioned, and stained with a CD31 antibody (R&D Systems #AF3628) and DAPI. For organ assessment, various tissues (kidney, lung, heart, gut, liver, and spleen) and plasma were homogenized, and the fluorescent intensity in homogenized tissues was measured. […] Serum samples isolated from the mice were analyzed to determine their lipid profile and metabolic panel. […]

## Verteporfin [free VP]
  plaque sizes: little-to-no effect on plaque sizes
